Reference: patent US6235736A, “3-anilino-2-cycloalkenone derivatives” (Nikken Chemicals Co., Ltd., priority 1997, dated 2001)
pIC50: −log10 of the molar value.

Columns and labels:
Type IV PDE [1] = assay: PDE IV inhibitory activity (isozyme partially purified from rat neutrophils, 3H-cAMP substrate); type: biochemical; conditions: rat neutrophil PDE IV, 30° C., 30 minutes, read-out: PDE IV inhibiting action IC50
Method: Type I, III, IV, and V PDE isozymes were prepared to study the PDE inhibitory activities of and selectivities with the compound of the invention [Trends Pharmacol Sci., 12, 19-27 (1991)]. Type I PDE was purchased from Sigma Corp. Type III, IV, and V PDE isozymes were partially purified from platelets (Type III and V) or neutrophils (Type IV) collected from rats. Each enzyme source was homogenized in a buffer (pH 6.5) containing 20 mM bisTris, 2 mM EDTA (i.e., ethlenediamine tetraacetate), 2-mercaptoethanol, 0.001 mM pepstatin and 0.01 mM leupeptin and was centrifuged at 30000×G for 30 minutes to obtain a supernatant, which was applied to an ion exchange column (Q-sepharose first flow, Pharmacia Corp.) and was eluted with 0 to 1M sodium acetate. Partially purified isozymes were identified by observing the inhibitory effects of conventional inhibitors.
Each PDE isozyme and the test compound dissolved in DMSO (i.e., dimethylsulfoxide) were added to 50 mM Tris--HCI buffer containing 5 mM magnesium chloride. ^3 H-cAMP (for type III and IV PDE) or ^3 H-cGMP (for type I and V PDE) were added as substrates and were reacted at 30° C. for 30 minutes. The reaction was terminated by placing the test tube in boiling water of 100° C. for 5 minutes. The nucleotides formed by PDE were broken down to ^3 H-adenosine or ^3 H-guanosine by 5'-nucleotidase. The substrate and reaction product were separated through an ion-exchange column (i.e., QAE sephadex, Pharmacia Corp.)
The eluted ^3 -H-nucleoside was measured for its radioactivity by a liquid scintillation counter. The inhibitory activities of the compound of the present invention are shown by the IC50 value (M). Further, the inhibitory activities of the test samples against type I, III, and V PDE are 1/10 or less than that against Type IV PDE.

rat neutrophils = assay: Inhibition of superoxide anion release from rat neutrophils (chemiluminescence); type: cell-based; conditions: Neutrophil, stimulated with 0.3 micro M A23187, read-out: Action suppressing release of superoxide anions from rat neutrophils IC50
Method: The release of super oxide anions was measured so as to study the inhibitory effects of the compound of the present invention on inflammatory leukocytes, that is, neutrophils.
Blood sample was collected from Wister rats anestetized with ether. It was superposed on a blood cell separation solution (Polymorphoprep 1.113, Naicomed Farm) and the neutrophils were separated by centrifugation. The neutrophils were resuspended in a Hank's balanced salt solution at a concentration of 0.5×10^4 cells/ml. 0.1 mM of lusigenin and the test substance dissolved in DMSO were added to 2 ml of the cell suspension. The chemiluminescence generated by stimulation of 0.3 maicro M calcium ionophore A23187 was measured by a chemiluminescence reader so as to evaluate the release of super oxide anions.

[2] = test system: antigen-induced bronchoconstriction in guinea-pig; assay: Inhibitory effect on antigen-induced bronchospasm (anti-asthmatic action); type: in vivo, guinea-pig (Hartley male); conditions: Cavia porcellus; intravenous, 10 minutes before 0.2 mg/kg OA challenge; read-out: Action suppressing antigen induced bronchoconstriction ED50
Method: Hartley male guinea-pig was sensitized by intramuscular administration of 35 mg Ovalbumin (OA) at first day and fourth day. After 25 to 29 days of first sensitization, trachial canula was introduced in the guinea pig anesthetized with pentobarbital and artificial ventilation was performed. The overflow of the ventilation was measured by the Konzett Roessler method while 0.2 mg/kg OA were administered intravenously. The test compound was dissolved in polyethylene glycol 400 and intravenously administered 10 minutes before OA challenge.

[3] = test system: TPA induced ear edema in mouse; assay: TPA induced mouse ear edema assay; type: in vivo, mouse (male ICR); conditions: 0.1 mg applied to right ear immediately after TPA; 6 hour
Method: Male ICR mice, 5 week old, were divided into groups of seven to eight. 2 μg of TPA (phorbor 12-ministate; Sigma Co.) in 20 μl acetone was applied to the inner and outer surface of right ear of each mouse to cause a reaction. 0.1 mg of compound was dissolved in 20 μl of a tetrahydrofuran-methanol mixture (mixture ratio 1:1) and the solution (20 μl) applied to the right ear immediately after TPA treatment. After 6 hour, the animals were sacrificed and right ear was punched out (.phi. […]) and weighed. The effect of comppund.was calculated as % inhibition as follows: [formula]

[4] = test system: DNFB contact-type dermatitis in mouse; assay: Allergic contact dermatitis assay (DNFB); type: in vivo, mouse (ICR male); conditions: applied 1 hour before and 5 hours after inducing ear edema; 24 hours
Method: 8 to 9 week old ICR type male mice were divided into groups of 8 to 9 each for use. The shaved skin of the ventral surface of each of the mice was applied with a 0.5% DNFB (2,4-dinitrofluorobenzene)acetone-olive oil solution (v/v=4/1) in an amount of 25 μl/day over 2 days to sensitize it. Four days after the second day of sensitization, a 0.2% DNFB acetone-olive oil solution was applied to the ear in an amount of 25 μl to induce contact-type dermatitis. After 24 hours, the thickness of the ear was measured using a dial thickness gauge and the difference with the value before inducing the edema was found. The test compound was dissolved in 25 μl of tetrahydrofuran-methanol (mixture ratio 1:1) and applied two time, that is, 1 hour before inducing the ear edema and 5 hours after it.
In Table 6, the effect of the compound was expressed by the ED50.

type IV PDE [5] = conditions: background art (Kokai No. 50-157360); cited from earlier work

COc1ccc(NC2=CC(=O)CC2)cc1O[C@@H]1C[C@H]2CC[C@@H]1C2 (racemic) [Compound No. 8, 3-[3-[(1RS,2RS,4SR)-bicyclo[2.2. 1]hept-2-yloxy]-4-methoxyanilino]-2-cyclopenten-1-one]
pIC50 (Type IV PDE [1]): 5.89 | pIC50 (rat neutrophils): 6.85 | ED50 [2]: 3 mg/kg | % Inhibition of ear edema [3]: 73.1%

COc1ccc(NC2=CC(=O)NCC2)cc1O[C@H]1C[C@@H]2CC[C@H]1C2 (relative stereo) [Compound No. 23]
pIC50 (Type IV PDE [1]): 5.62 | pIC50 (rat neutrophils): 6.72 | % Inhibition of ear edema [3]: 73.0%

COc1ccc(NC2=CC(=O)CC2)cc1OC1CCCC1 [Compound No. 1, 3-(3-cyclopentyloxy-4-methoxyanilino)-2-cyclopenten-1-one]
pIC50 (Type IV PDE [1]): 5.80 | pIC50 (rat neutrophils): 6.92 | ED50 [2]: 1.4 mg/kg | % Inhibition of ear edema [3]: 68.2%

COc1ccc(NC2=CC(=O)CC2)cc1OC1Cc2ccccc2C1 [Compound No. 9, 3-[3-(2-indanyloxy)-4-methoxyanilino]-2-cyclopenten-1-one]
pIC50 (Type IV PDE [1]): 6.16 | ED50 [2]: 5.5 mg/kg | % Inhibition of ear edema [3]: 72.3% | ED50 (allergic contact dermatitis, ear edema) [4]: 94 μg/site

COc1ccc(NC2=C(C)C(=O)CC2)cc1OC1Cc2ccccc2C1 [Compound No. 10, 3-[3-(2-indanyloxy)-4-methoxyanilino]-2-methyl-2-cyclopenten-1-one]
pIC50 (Type IV PDE [1]): 6.85 | ED50 [2]: 0.86 mg/kg

COc1ccc(NC2=C(C)C(=O)CC2)cc1OC1CCCCC1 [Compound No. 14, 3-(3-cyclohexyloxy-4-methoxyanilino)-2-methyl-2-cyclopenten-1-one]
pIC50 (Type IV PDE [1]): 5.62 | % Inhibition of ear edema [3]: 73.4% | ED50 (allergic contact dermatitis, ear edema) [4]: 16 μg/site

COc1ccc(NC2=CC(=O)NCC2)cc1OC1CCCC1 [Compound No. 21, 4-(3-cyclopentyloxy-4-methoxyanilino)-1,2,5,6-tetrahydropyridin-2-one]
pIC50 (Type IV PDE [1]): 5.96 | pIC50 (rat neutrophils): 6.39 | ED50 [2]: 1 mg/kg

COc1ccc(NC2=CC(=O)N(Cc3ccccc3)CC2)cc1OC1CCCC1 [Compound No. 22, 1-benzyl-4-(3-cyclopentyloxy-4-methoxyanilino)-1,2,5,6-tetrahydropyridin-2-one]
pIC50 (Type IV PDE [1]): 4.62 | pIC50 (rat neutrophils): 5.48 | % Inhibition of ear edema [3]: 76.8% | ED50 (allergic contact dermatitis, ear edema) [4]: 32 μg/site

CCC1=C(Nc2ccc(OC)c(OC3Cc4ccccc4C3)c2)CCC1=O [Compound No. 32, 2-ethyl-3-[3-(2-indanyloxy)-4-methoxyanilino]-2-cyclopenten-1-one]
pIC50 (Type IV PDE [1]): 7.30 | ED50 [2]: 7.34 mg/kg | % Inhibition of ear edema [3]: 75.5%

COc1ccc(N(Cc2ccccc2)C2=CC(=O)CCC2)cc1OC1Cc2ccccc2C1 [Compound No. 66, 3-[N-benzyl-3-(2-indanyloxy)-4-methoxyanilino]-2-cyclohexen-1-one]
pIC50 (Type IV PDE [1]): 6.24 | % Inhibition of ear edema [3]: 72.8%

COc1ccc(N(Cc2ccc3ccccc3c2)C2=CC(=O)CCC2)cc1OC1Cc2ccccc2C1 [Compound No. 67, 3-[3-(2-indanyloxy)-4-methoxy-N-(2-naphthylmethyl)anilino]-2-cyclohexen-1-one]
pIC50 (Type IV PDE [1]): 5.42 | % Inhibition of ear edema [3]: 60.8%

COc1ccc(N(Cc2ccccn2)C2=CC(=O)CCC2)cc1OC1Cc2ccccc2C1 [Compound No. 68, 3-[3-(2-indanyloxy)-4-methoxy-N-(2-pyridylmethyl)anilino]-2-cyclohexen-1-one]
pIC50 (Type IV PDE [1]): 6.31 | % Inhibition of ear edema [3]: 52.0%

COc1ccc(N(Cc2ccncc2)C2=C(C)C(=O)CC2)cc1OC1Cc2ccccc2C1 [Compound No. 73, 3-[3-(2-indanyloxy)-4-methoxy-N-(4-pyridylmethyl)anilino]-2-methyl-2-cyclopenten-1-one]
pIC50 (Type IV PDE [1]): 5.49 | % Inhibition of ear edema [3]: 54.3%

COc1ccc(NC2=C(C)C(=O)CCC2)cc1OC1CCCC1 [Compound No. 75, 3-(3-cyclopentyloxy-4-methoxyanilino)-2-methyl-2-cyclohexen-1-one]
pIC50 (Type IV PDE [1]): 6.33 | % Inhibition of ear edema [3]: 64.8%

COc1ccc(N(C)C2=CC(=O)CC2)cc1OC1Cc2ccccc2C1 [Compound No. 76]
pIC50 (Type IV PDE [1]): 6.89 | % Inhibition of ear edema [3]: 52.7%

COc1ccc(N(Cc2ccccc2)C2=CC(=O)CC2)cc1OC1Cc2ccccc2C1 [Compound No. 77, 3-[N-benzyl-3-(2-indanyloxy)-4-methoxyanilino]-2-cyclopenten-1-one]
pIC50 (Type IV PDE [1]): 6.04 | % Inhibition of ear edema [3]: 50.9%

COc1ccc(N(Cc2ccncc2)C2=CC(=O)CC2)cc1OC1Cc2ccccc2C1 [Compound No. 78, 3-[3-(2-indanyloxy)-4-methoxy-N-(4-pyridylmethyl)anilino]-2-cyclopenten-1-one]
pIC50 (Type IV PDE [1]): 5.89 | % Inhibition of ear edema [3]: 82.2%

COc1ccc(N(Cc2ccc3ccccc3c2)C2=CC(=O)CC2)cc1OC1Cc2ccccc2C1 [Compound No. 79, 3-[3-(2-indanyloxy)-4-methoxy-N-(2-naphthylmethyl)anilino]-2-cyclopenten-1-one]
pIC50 (Type IV PDE [1]): 6.14 | % Inhibition of ear edema [3]: 89.0%

COc1ccc(N(Cc2ccc3ccccc3n2)C2=CC(=O)CC2)cc1OC1Cc2ccccc2C1 [Compound No. 80, 3-[3-(2-indanyloxy)-4-methoxy-N-(2-quinolylmethyl)anilino]-2-cyclopenten-1-one]
pIC50 (Type IV PDE [1]): 6.92 | % Inhibition of ear edema [3]: 64.4%

COc1ccc(C2CNC(=O)C2)cc1OC1CCCC1 (stereo not drawn) [Rolipram]
specific inhibitory activity against type IV PDE (in words) (type IV PDE [5]): specific inhibitory activity against type IV PDE
